US10328077B2 (CELGENE CORPORATION, priority 2016, dated 2019)

How the values were obtained:
[1] = tested on: CD11b expression in THP-1 (AML) cells; test: LSD-1 CD11b cellular assay (flow cytometry); settings: Homo sapiens, THP-1, 96 h, read-out: THP-1 IC50
human LSD-1 = human LSD-1 (Homo sapiens (Human), UniProt O60341); test: In vitro enzyme inhibition assay LSD-1 (TR-FRET); assay type: biochemical; settings: TR-FRET, H3K4me1-biotin labeled peptide
Excerpt: This assay determines the ability of a test compound to inhibit LSD-1 demethylase activity.
The enzymatic assay of LSD-1 activity is based on Time Resolved-Fluorescence Resonance Energy Transfer (TR-FRET) detection.

Row | Compound | IC50 [1] | IC50 (human LSD-1)
1 | CCOc1ccc(-c2c(-c3ccc(C#N)c(F)c3)nc(N3CCC(N)CC3)n(C)c2=O)cc1 [Example 95, 4-[2-(4-aminopiperidin-1-yl)-5-(4-ethoxyphenyl)-1-methyl-6-oxopyrimidin-4-yl]-2-fluorobenzonitrile] | < 100 nM | < 100 nM
2 | Cn1c(N2CCC(N)CC2)nc(-c2ccc(C#N)c(F)c2)c(-c2ccc3occc3c2)c1=O [Example 18, 4-[2-(4-amino-piperidin-1-yl)-5-benzofuran-5-yl-1-methyl-6-oxo-1,6-dihydro-pyrimidin-4-yl]-2-fluoro-benzonitrile] | < 100 nM | < 100 nM
3 | COc1ccc(-c2c(-c3ccc(C#N)c(F)c3)nc(N3CCC[C@@H](N)C3)n(C)c2=O)cc1F [Example 25, 4-[2-((3R)-3-aminopiperidyl)-5-(3-fluoro-4-methoxyphenyl)-1-methyl-6-oxohydropyrimidin-4-yl]-2-fluorobenzenecarbonitrile] | < 100 nM | < 100 nM
4 | Cn1c(N2CCC(N)CC2)nc(-c2ccc(C#N)c(F)c2)c(-c2ccc(N3CCOCC3)nc2)c1=O [Example 68, 4-[2-(4-amino-piperidin-1-yl)-1-methyl-5-(6-morpholin-4-yl-pyridin-3-yl)-6-oxo-1,6-dihydro-pyrimidin-4-yl]-2-fluoro-benzonitrile] | < 100 nM | < 100 nM
5 | Cn1c(N2CCC(N)CC2)nc(-c2ccc(C#N)c(F)c2)c(-c2ccc(F)c(F)c2)c1=O [Example 104, 4-[2-(4-aminopiperidin-1-yl)-5-(3,4-difluorophenyl)-1-methyl-6-oxopyrimidin-4-yl]-2-fluorobenzonitrile] | < 100 nM | < 100 nM
6 | COc1ccc(-c2c(-c3ccc(C#N)c(F)c3)nc(N(C)C[C@@H]3CCNC3)n(C)c2=O)cc1 (stereo in doubt) [Example 56, 2-fluoro-4-[5-(4-methoxy-phenyl)-1-methyl-2-(methyl-pyrrolidin-3-ylmethyl-amino)-6-oxo-1,6-dihydro-pyrimidin-4-yl]-benzonitrile] | < 100 nM | < 100 nM
7 | COc1ccc(-c2c(-c3ccc(C#N)c(F)c3)nc(N3CCC[C@@H](N)C3)n(C)c2=O)cc1 [Example 30, 4-[2-((3R)-3-aminopiperidyl)-5-(4-methoxyphenyl)-1-methyl-6-oxohydro-pyrimidin-4-yl]-2-fluorobenzenecarbonitrile] | < 100 nM | < 100 nM
8 | Cn1c(N2CCC(N)CC2)nc(-c2ccc(C#N)c(F)c2)c(-c2ccc3[nH]ccc3c2)c1=O [Example 73, 4-[2-(4-amino-piperidin-1-yl)-5-(1H-indol-5-yl)-1-methyl-6-oxo-1,6-dihydro-pyrimidin-4-yl]-2-fluoro-benzonitrile] | < 100 nM | < 100 nM
9 | Cn1c(N2CCC(N)CC2)nc(-c2ccc(C#N)c(F)c2)c(-c2cc(F)cc(F)c2)c1=O [Example 103, 4-[2-(4-aminopiperidin-1-yl)-5-(3,5-difluorophenyl)-1-methyl-6-oxopyrimidin-4-yl]-2-fluorobenzonitrile] | < 100 nM | < 100 nM
10 | CN(C)c1ccc(-c2c(-c3ccc(C#N)cc3)nc(N3CCCNCC3)n(C)c2=O)cn1 [Example 67, 4-[2-[1,4]diazepan-1-yl-5-(6-dimethylamino-pyridin-3-yl)-1-methyl-6-oxo-1,6-dihydro-pyrimidin-4-yl]-benzonitrile] | < 100 nM | < 100 nM
11 | COc1c(F)cc(-c2c(-c3ccc(C#N)cc3)nc(N3CCC(N)CC3)n(C)c2=O)cc1F [Example 38, 4-[2-(4-aminopiperidyl)-5-(3,5-difluoro-4-methoxyphenyl)-1-methyl-6-oxohydropyrimidin-4-yl]benzenecarbonitrile] | < 100 nM | < 100 nM
12 | COc1ccc(-c2c(-c3ccc(C#N)c(F)c3)nc(N3CC[C@@H](N)[C@@H](F)C3)n(C)c2=O)cc1 [Example 78, 4-[2-((4R, 3S)-4-amino-3-fluoro-piperidin-1-yl)-5-(4-methoxy-phenyl)-1-methyl-6-oxo-1,6-dihydro-pyrimidin-4-yl]-2-fluoro-benzonitrile] | < 100 nM | < 100 nM
13 | Cn1c(N2CCC(N)CC2)nc(-c2ccc(C#N)c(F)c2)c(-c2ccc(CCO)cc2)c1=O [Example 99, 4-[2-(4-aminopiperidin-1-yl)-5-[4-(2-hydroxyethyl)phenyl]-1-methyl-6-oxopyrimidin-4-yl]-2-fluorobenzonitrile] | < 100 nM | < 100 nM
14 | COc1ccc(-c2c(-c3ccc(C#N)c(F)c3)nc(N3CC[C@H](N)[C@H](F)C3)n(C)c2=O)cc1 [Example 79, 4-[2-((4S, 3R)-4-amino-3-fluoro-piperidin-1-yl)-5-(4-methoxy-phenyl)-1-methyl-6-oxo-1,6-dihydro-pyrimidin-4-yl]-2-fluoro-benzonitrile] | < 100 nM | < 100 nM
15 | COc1ccc(-c2c(-c3ccc(C#N)c(F)c3)nc(N3CCC(N)CC3)[nH]c2=O)cc1 [Example 122, 4-[2-(4-aminopiperidin-1-yl)-5-(4-methoxyphenyl)-6-oxo-1H-pyrimidin-4-yl]-2-fluorobenzonitrile] | < 100 nM | < 100 nM
16 | COc1ccc(-c2c(-c3ccc(C#N)c(F)c3)nc(N(C)C[C@H]3CCNC3)n(C)c2=O)cc1 [Example 54, 2-fluoro-4-[5-(4-methoxy-phenyl)-1-methyl-2-(methyl-(3S)-pyrrolidin-3-ylmethyl-amino)-6-oxo-1,6-dihydro-pyrimidin-4-yl]-benzonitrile] | < 100 nM | < 100 nM
17 | CNc1ccc(-c2c(-c3ccc(C#N)c(F)c3)nc(N3CCC(N)CC3)n(C)c2=O)cc1F [Example 91, 4-[2-(4-aminopiperidin-1-yl)-5-[3-fluoro-4-(methylamino)phenyl]-1-methyl-6-oxopyrimidin-4-yl]-2-fluorobenzonitrile] | < 100 nM | < 100 nM
18 | COc1ccc(-c2c(-c3ccc(C#N)c(F)c3)nc(N3CCC(N)CC3)n(CC(N)=O)c2=O)cc1 [Example 16, 2-[2-(4-amino-piperidin-1-yl)-4-(4-cyano-3-fluoro-phenyl)-5-(4-methoxy-phenyl)-6-oxo-6H-pyrimidin-1-yl]-acetamide] | < 100 nM | < 100 nM
19 | CNC(=O)c1ccc(-c2c(-c3ccc(C#N)c(F)c3)nc(N3CCC(N)CC3)n(C)c2=O)cn1 [Example 50, 5-[2-(4-amino-piperidin-1-yl)-4-(4-cyano-3-fluoro-phenyl)-1-methyl-6-oxo-1,6-dihydro-pyrimidin-5-yl]-pyridine-2-carboxylic acid methylamide] | < 100 nM | < 100 nM
20 | COCCOc1ccc(-c2c(-c3ccc(C#N)c(F)c3)nc(N3CCC(N)CC3)n(C)c2=O)cc1 [Example 98, 4-[2-(4-aminopiperidin-1-yl)-5-[4-(2-methoxyethoxy)phenyl]-1-methyl-6-oxopyrimidin-4-yl]-2-fluorobenzonitrile] | < 100 nM | < 100 nM
21 | Cn1c(N2CCC(N)CC2)nc(-c2ccc(C#N)c(F)c2)c(-c2ccc(N)cc2)c1=O [Example 89, 4-[5-(4-aminophenyl)-2-(4-aminopiperidin-1-yl)-1-methyl-6-oxopyrimidin-4-yl]-2-fluorobenzonitrile] | < 100 nM | < 100 nM
22 | COc1ccc(-c2c(-c3ccc(C#N)c(F)c3)nc(N3CC[C@H](N)C3)n(C)c2=O)cc1F [Example 29, 4-[2-((3S)-3-amino-pyrrolidin-1-yl)-5-(3-fluoro-4-methoxy-phenyl)-1-methyl-6-oxo-1,6-dihydro-pyrimidin-4-yl]-2-fluoro-benzonitrile] | 100 to 1000 nM | < 100 nM
23 | CCOc1ncc(-c2c(-c3ccc(C#N)c(F)c3)nc(N3CCC(N)CC3)n(C)c2=O)cc1F [Example 93, 4-[2-(4-aminopiperidin-1-yl)-5-(6-ethoxy-5-fluoropyridin-3-yl)-1-methyl-6-oxopyrimidin-4-yl]-2-fluorobenzonitrile] | < 100 nM | < 100 nM
24 | COCc1ccc(-c2c(-c3ccc(C#N)c(F)c3)nc(N3CCC(N)CC3)n(C)c2=O)cc1 [Example 107, 4-[2-(4-aminopiperidin-1-yl)-5-[4-(methoxymethyl)phenyl]-1-methyl-6-oxopyrimidin-4-yl]-2-fluorobenzonitrile] | < 100 nM | < 100 nM
25 | CCc1ccc(-c2c(-c3ccc(C#N)cc3)nc(N3CCC(N)CC3)n(C)c2=O)cn1 [Example 10, 4-[2-(4-amino-piperidin-1-yl)-5-(6-ethyl-pyridin-3-yl)-1-methyl-6-oxo-1,6-dihydro-pyrimidin-4-yl]-benzonitrile] | 100 to 1000 nM | < 100 nM
26 | CCOc1ccc(-c2c(-c3ccc(C#N)c(F)c3)nc(N3CCC(N)CC3)n(C)c2=O)cn1 [Example 94, 4-[2-(4-aminopiperidin-1-yl)-5-(6-ethoxypyridin-3-yl)-1-methyl-6-oxopyrimidin-4-yl]-2-fluorobenzonitrile] | < 100 nM | < 100 nM
27 | CN(C)C1CCN(c2nc(-c3ccc(C#N)c(F)c3)c(-c3ccc4cn[nH]c4c3)c(=O)n2C)CC1 [Example 84, 4-[2-(4-dimethylamino-piperidin-1-yl)-5-(2H-indazol-6-yl)-1-methyl-6-oxo-1,6-dihydro-pyrimidin-4-yl]-2-fluoro-benzonitrile] | < 100 nM | < 100 nM
28 | Cn1c(N2CCC(N)CC2)nc(-c2ccc(C#N)cc2)c(-c2ccc(OCCO)cc2)c1=O [Example 97, 4-[2-(4-aminopiperidin-1-yl)-5-[4-(2-hydroxyethoxy)phenyl]-1-methyl-6-oxopyrimidin-4-yl]benzonitrile] | < 100 nM | < 100 nM
29 | COc1ccc(-c2c(-c3ccc(C#N)c(F)c3)nc(NC[C@@H]3CCNC3)n(C)c2=O)cc1 [Example 52, 2-fluoro-4-{5-(4-methoxy-phenyl)-1-methyl-6-oxo-2-[(3R)-(pyrrolidin-3-ylmethyl)-amino]-1,6-dihydro-pyrimidin-4-yl}-benzonitrile] | 100 to 1000 nM | < 100 nM
